≈ marks a conversion by molar mass, not a printed value. Calls of active or inactive are those of the source. The rule behind the calls is not given here.
Key:
[1] = Renal clearance in dog; format: ADME, organism-based, Canis lupus familiaris, Kidney; conditions: in vivo, read-out: CL_renal
[2] = Drug excretion in rhesus monkey urine; format: ADME, Macaca mulatta; conditions: read-out: Activity
[3] = Renal clearance in rhesus monkey; format: ADME, organism-based, Macaca mulatta, Kidney; conditions: in vivo, read-out: CL_renal
[4] = Tmax in fasted human at 800 mg, po every 24 hrs measured on day 8; format: ADME, organism-based; conditions: in vivo
[5] = Cmax in fasted human plasma at 400 mg, po every 12 hrs measured on day 8; format: ADME, organism-based; set-up: dose 400 mg, route oral
[6] = tested on: Human immunodeficiency virus 1; experiment: Antiviral activity against HIV1; format: functional, organism-based
[7] = tested on: Human immunodeficiency virus 1; experiment: Antiviral activity against HIV1 infected in fasted human assessed as decrease in plasma viral log10 RNA copies/ml at 1000 mg, po […] followed by a single dose on day 8 measured on day 9 relative to pooled placebo control; format: functional
[8] = tested on: Homo sapiens; experiment: Reduction in uric acid level in healthy human serum at 1000 mg, po administered every day; format: ADME, organism-based; conditions: in vivo
[9] = tested on: Human immunodeficiency virus 1; experiment: Antiviral activity against HIV1 infected in human assessed as change in CD8 expressing T-cell count from baseline at 1000 mg, po administered every day as five enteric-coated tablets followed by a single dose on day 8 measured on day 9 relative to pooled placebo control; format: functional
[10] = Cmax in human plasma at 500 mg administered as multiple doses, BID; format: ADME, organism-based; set-up: dose 500 mg
[11] = organism: Homo sapiens; experiment: Reduction in uric acid level in human plasma; format: functional, organism-based
[12] = Drug excretion in dog urine; format: ADME, Canis lupus familiaris; conditions: read-out: Activity
[13] = Tmax in fasted human plasma at 600 mg; format: ADME, organism-based
[14] = Renal clearance in rat; format: ADME, organism-based, Kidney; conditions: in vivo, read-out: CL_renal
[15] = tested on: Human immunodeficiency virus 1; experiment: Antiviral activity against HIV1 infected in fasted human assessed as decrease in plasma viral log10 RNA copies/ml at 800 mg, po […] followed by a single dose on day 8 measured on day 9 relative to pooled placebo control; format: functional
[16] = organism: Homo sapiens; experiment: Toxicity in healthy human assessed as occurrence of adverse events; format: organism-based; conditions: in vivo
[17] = tested on: Human immunodeficiency virus 1; experiment: Antiviral activity against HIV1 infected in fasted human assessed as decrease in plasma viral log10 RNA copies/ml at 600 mg, po […] followed by a single dose on day 8 measured on day 9 relative to pooled placebo control; format: functional
[18] = tested on: Human immunodeficiency virus 1; experiment: Antiviral activity against HIV1 infected in human assessed as change in CD8 expressing T-cell count from baseline at 400 mg, po BID for 7 days as four modified-release capsules followed by a single dose on day 8 measured on day 9 relative to pooled placebo control; format: functional
[19] = Tmax in fasted human plasma at 50 to 300 mg; format: ADME, organism-based
[20] = Half life in fasted human at 400 mg, po every 24 hrs measured on day 8; format: ADME, organism-based; conditions: in vivo
[21] = organism: Homo sapiens; experiment: Cardiotoxicity in healthy human assessed as changes in electrocardiographic QTc interval; format: toxicity, organism-based; conditions: in vivo
[22] = AUC (24 hrs) in fasted human at 400 mg, po every 24 hrs measured on day 8; format: ADME, organism-based; set-up: time < 24 hr, dose 400 mg, route oral; conditions: plasma
[23] = Plasma protein binding in rat; format: ADME, cell-free; conditions: read-out: PPB
[24] = Drug excretion in human urine; format: ADME; conditions: read-out: Activity
[25] = Drug concentration at steady state in fasted human plasma at 400 mg, po every 12 hrs measured on day 8; format: ADME, organism-based; conditions: read-out: Drug uptake
[26] = Drug concentration at steady state in fasted human plasma at 1000 mg, po every 24 hrs measured on day 8; format: ADME, organism-based; conditions: read-out: Drug uptake
[27] = tested on: Human immunodeficiency virus 1; experiment: Antiviral activity against HIV1 infected in human assessed as change in CD4 expressing T-cell count from baseline at 1000 mg, po administered every day as five enteric-coated tablets followed by a single dose on day 8 measured on day 9 relative to pooled placebo control; format: functional
[28] = tested on: Human immunodeficiency virus 1; experiment: Antiviral activity against HIV1 infected in human assessed as change in CD4 expressing T-cell count from baseline at 800 mg, po administered every day as four enteric-coated tablets followed by a single dose on day 8 measured on day 9 relative to pooled placebo control; format: functional
[29] = Half life in fasted human at 600 mg, po every 24 hrs measured on day 8; format: ADME, organism-based; conditions: in vivo
[30] = tested on: Homo sapiens; experiment: Reduction in uric acid level in healthy human serum at 400 mg, po BID; format: functional
[31] = tested on: Human immunodeficiency virus 1; experiment: Antiviral activity against HIV1 infected in fasted human assessed as viral load decay rate as viral log10 RNA copies/ml/day at 400 mg, po BID for 7 days as four modified-release capsules followed by a single dose on day 8 measured on day 9; format: functional
[32] = Drug concentration at steady state in fasted human plasma at 800 mg, po every 24 hrs measured on day 8; format: ADME, organism-based; conditions: read-out: Drug uptake

Question: Which results are given for `O=C(CSc1nnc(Br)n1-c1ccc(C2CC2)c2ccccc12)Nc1ccc(C(=O)O)cc1Cl`?
Answer: CL renal [1]: ≤ 1 mL/min; dose excreted [2]: < 0.06%; CL renal [3]: ≤ 1 mL/min; Tmax [4]: 3 h; Cmax [5]: 2990 ng/mL; EC50 [6]: 1.7 ng/mL (≈ 3.05 nM); Activity [7]: -1.8189 mL⁻¹; Activity [8]: 88 µmol/L; Activity [9]: 71.04 /mm3; Cmax [10]: 746 ng/mL; Activity [11]: Active; dose excreted [12]: < 0.06%; Tmax [13]: 4.92 h; CL renal [14]: ≤ 1 mL/min; Activity [15]: -1.7426 mL⁻¹; Activity [16]: Non-toxic; Activity [17]: -1.5241 mL⁻¹; Activity [18]: -39.17 /mm3; Tmax [19]: 1.25 h; half-life [20]: 678 min; Activity [21]: Non-toxic; AUC at 24 h [22]: 12400 ng·h/mL; fraction unbound [23]: < 0.01; dose excreted [24]: < 0.06%; concentration at 12 h [25]: 505 ng/mL; concentration at 24 h [26]: 515 ng/mL; Activity [27]: 90.48 /mm3; Activity [28]: 100.74 /mm3; half-life [29]: 425 min; Activity [30]: 88 µmol/L; Activity [31]: -0.25 mL⁻¹; concentration at 24 h [32]: 310 ng/mL

From ChEMBL document CHEMBL1629701, “Phase 2a randomized controlled trial of short-term activity, safety, and pharmacokinetics of a novel nonnucleoside reverse transcriptase inhibitor, RDEA806, in HIV-1-positive, antiretroviral-naive subjects” (Antimicrob Agents Chemother, 2010)
